Columns and labels:
Mus musculus [1] = species on record: Mus musculus; test: Antidepressant activity in Swiss albino mouse assessed as decrease in immobility time by tail suspension test; format: functional; further: test concentration or dose not given here
Mus musculus [2] = species on record: Mus musculus; test: Antidepressant activity in Swiss albino mouse assessed as decrease in immobility time by forced swimming test; format: functional; further: test concentration or dose not given here
[3] = target: T1, Amine oxidase [flavin-containing] A (Homo sapiens, UniProt P21397)
T1 sequence (P21397 whole entry): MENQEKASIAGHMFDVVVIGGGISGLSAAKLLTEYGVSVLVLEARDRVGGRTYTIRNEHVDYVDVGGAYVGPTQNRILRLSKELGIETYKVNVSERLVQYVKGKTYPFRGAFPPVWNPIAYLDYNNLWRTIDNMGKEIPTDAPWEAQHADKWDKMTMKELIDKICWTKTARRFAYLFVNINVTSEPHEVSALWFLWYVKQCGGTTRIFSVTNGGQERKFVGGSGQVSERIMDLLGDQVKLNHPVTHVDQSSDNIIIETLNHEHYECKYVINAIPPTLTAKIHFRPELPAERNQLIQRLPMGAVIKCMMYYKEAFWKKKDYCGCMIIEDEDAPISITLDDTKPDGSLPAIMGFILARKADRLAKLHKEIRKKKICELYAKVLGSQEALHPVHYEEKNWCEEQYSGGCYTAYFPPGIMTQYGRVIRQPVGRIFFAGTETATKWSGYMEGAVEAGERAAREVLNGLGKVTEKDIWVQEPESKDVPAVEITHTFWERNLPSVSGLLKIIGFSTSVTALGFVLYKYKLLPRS

Homo sapiens = species on record: Homo sapiens; test: Selectivity index, ratio of Ki for human MAO-A to Ki for human MAO-B
[4] = target: T2, Amine oxidase [flavin-containing] B (Homo sapiens, UniProt P27338)
T2 sequence (P27338 whole entry): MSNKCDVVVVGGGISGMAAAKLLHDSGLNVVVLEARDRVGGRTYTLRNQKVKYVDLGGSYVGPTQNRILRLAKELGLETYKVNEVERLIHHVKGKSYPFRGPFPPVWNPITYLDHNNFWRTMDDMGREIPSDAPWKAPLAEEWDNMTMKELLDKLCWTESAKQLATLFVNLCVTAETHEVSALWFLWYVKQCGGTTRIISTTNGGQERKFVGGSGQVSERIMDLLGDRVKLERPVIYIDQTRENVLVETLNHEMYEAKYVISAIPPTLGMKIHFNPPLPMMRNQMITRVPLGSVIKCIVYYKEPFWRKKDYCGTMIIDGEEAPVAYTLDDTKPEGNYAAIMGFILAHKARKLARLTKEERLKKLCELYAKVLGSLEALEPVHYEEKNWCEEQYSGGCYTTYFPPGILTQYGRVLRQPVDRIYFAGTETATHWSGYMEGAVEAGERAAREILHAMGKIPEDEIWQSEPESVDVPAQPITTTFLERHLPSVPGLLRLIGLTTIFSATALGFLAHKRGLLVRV

Carbonic anhydrase 4 = Carbonic anhydrase 4 (Homo sapiens, UniProt P22748); test: Inhibition of human recombinant CA4
Carbonic anhydrase 4, sequence (P22748 whole entry): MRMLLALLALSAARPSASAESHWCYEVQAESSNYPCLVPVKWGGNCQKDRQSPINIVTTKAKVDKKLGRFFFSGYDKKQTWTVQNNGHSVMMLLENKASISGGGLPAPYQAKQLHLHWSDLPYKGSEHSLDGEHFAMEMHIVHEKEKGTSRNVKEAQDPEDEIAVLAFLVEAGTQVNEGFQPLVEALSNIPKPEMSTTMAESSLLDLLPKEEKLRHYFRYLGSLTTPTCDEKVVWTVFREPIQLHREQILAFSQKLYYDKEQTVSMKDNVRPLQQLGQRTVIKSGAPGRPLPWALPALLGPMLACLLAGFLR

Carbonic anhydrase 1 [5] = target: T3, Carbonic anhydrase 1 (Homo sapiens, UniProt P00915); test: Inhibition of human recombinant CA1
T3 sequence (P00915 whole entry): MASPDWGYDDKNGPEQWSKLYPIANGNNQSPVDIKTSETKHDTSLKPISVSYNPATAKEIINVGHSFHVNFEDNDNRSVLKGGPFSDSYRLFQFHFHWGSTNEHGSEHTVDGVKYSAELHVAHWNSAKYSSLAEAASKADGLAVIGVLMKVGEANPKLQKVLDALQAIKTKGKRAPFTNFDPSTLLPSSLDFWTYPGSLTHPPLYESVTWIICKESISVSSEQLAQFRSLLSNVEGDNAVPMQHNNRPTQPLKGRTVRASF

Carbonic anhydrase 2 [6] = target: T4, Carbonic anhydrase 2 (Homo sapiens, UniProt P00918); test: Inhibition of human recombinant CA2
Carbonic anhydrase 9 [7] = target: T5, Carbonic anhydrase 9 (Homo sapiens, UniProt Q16790)
[8] = Cytotoxicity against human HPC cells assessed as reduction in cell viability incubated for 48 hrs by MTT assay; format: functional
Carbonic anhydrase 2 [9] = target: T4, Carbonic anhydrase 2
Carbonic anhydrase 1 [10] = target: T3, Carbonic anhydrase 1
Ca9-22 = test: Cytotoxicity against human Ca9-22 cells assessed as reduction in cell viability incubated for 48 hrs by MTT assay; format: functional
[11] = Cytotoxicity against human HGF cells assessed as reduction in cell viability incubated for 48 hrs by MTT assay; format: functional
Carbonic anhydrase 12 = Carbonic anhydrase 12 (Homo sapiens, UniProt O43570); test: Inhibition of human CA12 preincubated for 15 mins by phenol red dye based stopped flow CO2 hydration assay
Carbonic anhydrase 12, sequence (O43570 whole entry): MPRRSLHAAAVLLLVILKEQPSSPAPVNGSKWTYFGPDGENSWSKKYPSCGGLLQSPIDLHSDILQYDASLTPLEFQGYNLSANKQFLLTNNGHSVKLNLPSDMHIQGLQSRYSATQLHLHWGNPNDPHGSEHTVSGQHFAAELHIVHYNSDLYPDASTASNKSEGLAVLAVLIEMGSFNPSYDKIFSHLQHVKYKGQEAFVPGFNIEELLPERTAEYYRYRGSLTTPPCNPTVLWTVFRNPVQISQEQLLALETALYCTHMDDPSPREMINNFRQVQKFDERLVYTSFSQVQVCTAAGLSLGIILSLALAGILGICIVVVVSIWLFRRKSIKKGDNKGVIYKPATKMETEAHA

[12] = Cytotoxicity against human HPLF cells assessed as reduction in cell viability incubated for 48 hrs by MTT assay; format: functional
HSC-3 = test: Cytotoxicity against human HSC-3 cells assessed as reduction in cell viability incubated for 48 hrs by MTT assay; format: functional
HSC-2 = test: Cytotoxicity against human HSC-2 cells assessed as reduction in cell viability incubated for 48 hrs by MTT assay; format: functional
Carbonic anhydrase 9 [13] = target: T5, Carbonic anhydrase 9; test: Inhibition of human CA9 preincubated for 15 mins by phenol red dye based stopped flow CO2 hydration assay
Mus musculus [14] = species on record: Mus musculus; test: Antidepressant activity in mouse assessed as […] by forced swimming test; format: functional
Mus musculus [15] = species on record: Mus musculus; test: Antidepressant activity in mouse assessed as […] by tail suspension test; format: functional

Cc1nc(-c2cccc(Cl)c2Cl)ccc1C1=NNC(c2cc(F)cc(F)c2)C1 (stereo not drawn)
Time (Mus musculus [1]): 70.33 s | Time (Mus musculus [2]): 66.67 s

Cc1nc(-c2cccc(Cl)c2Cl)ccc1C1=NNC(c2ccc(Br)cc2)C1 (stereo not drawn)
Time (Mus musculus [1]): 70.33 s | Time (Mus musculus [2]): 66.67 s

COc1ccc(C2=NN(C(=S)Nc3ccccc3)C(c3ccc(F)cc3)C2)cc1 (stereo not drawn)
Ki [3]: 0.0001 µM | Ratio Ki (Homo sapiens): 0.000464 | Ki [4]: 0.2 µM

CNC(=S)N1N=C(c2ccc(C)cc2)CC1c1ccc(F)cc1 (stereo not drawn)
Ki [3]: 0.0001 µM | Ratio Ki (Homo sapiens): 0.000464 | Ki [4]: 0.2 µM

C=CCNC(=S)N1N=C(c2ccccc2)CC1c1ccc(F)cc1 (stereo not drawn)
Ki [3]: 0.0001 µM | Ratio Ki (Homo sapiens): 0.000464 | Ki [4]: 0.2 µM

Cc1nc(-c2ccc(F)cc2)ccc1C1=NNC(c2ccc(Br)cc2)C1 (stereo not drawn)
Time (Mus musculus [1]): 70.33 s | Time (Mus musculus [2]): 66.67 s

CC(=O)N1N=C(c2ccc(OS(N)(=O)=O)cc2)CC1c1ccccc1 (stereo not drawn)
Ki (Carbonic anhydrase 4): 0.0177 µM | Ki (Carbonic anhydrase 1 [5]): 2.46 µM | Ki (Carbonic anhydrase 2 [6]): 0.0004 µM | Ki (Carbonic anhydrase 9 [7]): 0.0148 µM

COc1ccc(C2=NN(C(C)=O)C(c3ccc(OS(N)(=O)=O)cc3)C2)cc1 (stereo not drawn)
Ki (Carbonic anhydrase 4): 0.0177 µM | Ki (Carbonic anhydrase 1 [5]): 2.46 µM | Ki (Carbonic anhydrase 2 [6]): 0.0004 µM | Ki (Carbonic anhydrase 9 [7]): 0.0148 µM

CC(=O)N1N=C(c2ccc(OS(N)(=O)=O)cc2)CC1c1ccc([N+](=O)[O-])cc1 (stereo not drawn)
Ki (Carbonic anhydrase 4): 0.0177 µM | Ki (Carbonic anhydrase 1 [5]): 2.46 µM | Ki (Carbonic anhydrase 2 [6]): 0.0004 µM | Ki (Carbonic anhydrase 9 [7]): 0.0148 µM

Cc1nc(-c2ccc(F)cc2)ccc1C1=NNC(c2cc(F)cc(F)c2)C1 (stereo not drawn)
Time (Mus musculus [1]): 70.33 s | Time (Mus musculus [2]): 66.67 s

CC(=O)N1N=C(c2ccc(F)cc2)CC1c1cccc(OS(N)(=O)=O)c1 (stereo not drawn)
Ki (Carbonic anhydrase 4): 0.0177 µM | Ki (Carbonic anhydrase 1 [5]): 2.46 µM | Ki (Carbonic anhydrase 2 [6]): 0.0004 µM | Ki (Carbonic anhydrase 9 [7]): 0.0148 µM

Fc1ccc(C2CC(c3ccccc3)=NN2C(=S)Nc2ccccc2)cc1 (stereo not drawn)
Ki [3]: 0.0001 µM | Ratio Ki (Homo sapiens): 0.000464 | Ki [4]: 0.2 µM

NS(=O)(=O)c1ccc(N2N=C(c3ccc(O)cc3)CC2c2cccs2)cc1 (stereo not drawn)
CC50 [8]: 39.3 µM | Ki (Carbonic anhydrase 2 [9]): 0.342 µM | Ki (Carbonic anhydrase 1 [10]): 0.232 µM | CC50 (Ca9-22): 39.3 µM | CC50 [11]: 39.3 µM | Ki (Carbonic anhydrase 12): 0.0062 µM | CC50 [12]: 39.3 µM | CC50 (HSC-3): 39.3 µM | CC50 (HSC-2): 39.3 µM

COc1ccc(-c2ccc(C3=NNC(c4ccc(Br)cc4)C3)c(C)n2)cc1OC (stereo not drawn)
Time (Mus musculus [1]): 70.33 s | Time (Mus musculus [2]): 66.67 s

NS(=O)(=O)c1ccc(N2N=C(c3ccc(O)cc3)CC2c2ccc([N+](=O)[O-])cc2)cc1 (stereo not drawn)
Ki (Carbonic anhydrase 9 [13]): 0.0535 µM | CC50 [8]: 39.3 µM | CC50 [11]: 39.3 µM | Ki (Carbonic anhydrase 12): 0.0062 µM | CC50 [12]: 39.3 µM | CC50 (HSC-3): 39.3 µM | CC50 (HSC-2): 39.3 µM

CC(=O)N1N=C(c2ccc(OS(N)(=O)=O)cc2)CC1c1cc(Cl)ccc1Cl (stereo not drawn)
Ki (Carbonic anhydrase 4): 0.0177 µM | Ki (Carbonic anhydrase 1 [5]): 2.46 µM | Ki (Carbonic anhydrase 2 [6]): 0.0004 µM | Ki (Carbonic anhydrase 9 [7]): 0.0148 µM

C=CCNC(=S)N1N=C(c2ccc(C)cc2)CC1c1ccc(F)cc1 (stereo not drawn)
Ki [3]: 0.0001 µM | Ratio Ki (Homo sapiens): 0.000464 | Ki [4]: 0.2 µM

Cc1nc(-c2ccc(Br)cc2)ccc1C1=NNC(c2cc(F)cc(F)c2)C1 (stereo not drawn)
Time (Mus musculus [1]): 70.33 s | Time (Mus musculus [2]): 66.67 s

COc1cc(-c2ccc(C3=NNC(c4ccc(Br)cc4)C3)c(C)n2)cc(OC)c1OC (stereo not drawn)
Time (Mus musculus [1]): 70.33 s | Time (Mus musculus [2]): 66.67 s

CNC(=S)N1N=C(c2ccccc2)CC1c1ccc(F)cc1 (stereo not drawn)
Ki [3]: 0.0001 µM | Ratio Ki (Homo sapiens): 0.000464 | Ki [4]: 0.2 µM

Fc1ccc(C2CC(c3ccc(Cl)cc3)=NN2C(=S)Nc2ccccc2)cc1 (stereo not drawn)
Ki [3]: 0.0001 µM | Ratio Ki (Homo sapiens): 0.000464 | Ki [4]: 0.2 µM

CC(=O)N1N=C(c2ccc(OS(N)(=O)=O)cc2)CC1c1ccccc1Cl (stereo not drawn)
Ki (Carbonic anhydrase 4): 0.0177 µM | Ki (Carbonic anhydrase 1 [5]): 2.46 µM | Ki (Carbonic anhydrase 2 [6]): 0.0004 µM | Ki (Carbonic anhydrase 9 [7]): 0.0148 µM

Oc1ccc(C2=NNC(c3ccco3)C2)cc1 (stereo not drawn)
Time (Mus musculus [14]): 21.17 s | Time (Mus musculus [15]): 21.17 s

CC(=O)N1N=C(c2ccc(OS(N)(=O)=O)cc2)CC1c1ccc(C(F)(F)F)cc1 (stereo not drawn)
Ki (Carbonic anhydrase 4): 0.0177 µM | Ki (Carbonic anhydrase 1 [5]): 2.46 µM | Ki (Carbonic anhydrase 2 [6]): 0.0004 µM | Ki (Carbonic anhydrase 9 [7]): 0.0148 µM

Oc1ccc(C2=NNC(c3cccs3)C2)cc1 (stereo not drawn)
Time (Mus musculus [14]): 21.17 s | Time (Mus musculus [15]): 21.17 s

c1coc(C2CC(c3cccc4ccccc34)=NN2)c1 (stereo not drawn)
Time (Mus musculus [14]): 21.17 s | Time (Mus musculus [15]): 21.17 s

CCNC(=S)N1N=C(c2ccc(C)cc2)CC1c1ccc(F)cc1 (stereo not drawn)
Ki [3]: 0.0001 µM | Ratio Ki (Homo sapiens): 0.000464 | Ki [4]: 0.2 µM

C=CCNC(=S)N1N=C(c2ccc(Cl)cc2)CC1c1ccc(F)cc1 (stereo not drawn)
Ki [3]: 0.0001 µM | Ratio Ki (Homo sapiens): 0.000464 | Ki [4]: 0.2 µM

Cc1nc(-c2ccc(Br)cc2)ccc1C1=NNC(c2ccc(Br)cc2)C1 (stereo not drawn)
Time (Mus musculus [1]): 70.33 s | Time (Mus musculus [2]): 66.67 s

CCNC(=S)N1N=C(c2ccc(OC)cc2)CC1c1ccc(F)cc1 (stereo not drawn)
Ki [3]: 0.0001 µM | Ratio Ki (Homo sapiens): 0.000464 | Ki [4]: 0.2 µM

CCNC(=S)N1N=C(c2ccccc2)CC1c1ccc(F)cc1 (stereo not drawn)
Ki [3]: 0.0001 µM | Ratio Ki (Homo sapiens): 0.000464 | Ki [4]: 0.2 µM

c1csc(C2CC(c3cccc4ccccc34)=NN2)c1 (stereo not drawn)
Time (Mus musculus [14]): 21.17 s | Time (Mus musculus [15]): 21.17 s

Cc1ccc(C2CC(c3ccc(O)cc3)=NN2c2ccc(S(N)(=O)=O)cc2)cc1 (stereo not drawn)
CC50 [8]: 39.3 µM | CC50 (Ca9-22): 39.3 µM | CC50 [11]: 39.3 µM | CC50 [12]: 39.3 µM | CC50 (HSC-3): 39.3 µM | CC50 (HSC-2): 39.3 µM

Clc1ccc(C2=NNC(c3ccc(Cl)cc3)C2)cc1 (stereo not drawn)
Time (Mus musculus [14]): 21.17 s | Time (Mus musculus [15]): 21.17 s

CNC(=S)N1N=C(c2ccc(OC)cc2)CC1c1ccc(F)cc1 (stereo not drawn)
Ki [3]: 0.0001 µM | Ratio Ki (Homo sapiens): 0.000464 | Ki [4]: 0.2 µM

CNC(=S)N1N=C(c2ccc(Cl)cc2)CC1c1ccc(F)cc1 (stereo not drawn)
Ki [3]: 0.0001 µM | Ratio Ki (Homo sapiens): 0.000464 | Ki [4]: 0.2 µM

CCNC(=S)N1N=C(c2ccc(Cl)cc2)CC1c1ccc(F)cc1 (stereo not drawn)
Ki [3]: 0.0001 µM | Ratio Ki (Homo sapiens): 0.000464 | Ki [4]: 0.2 µM
